Assay results published in US20240228488A1 (TAKEDA PHARMACEUTICAL COMPANY LIMITED, priority 2021, published 2024).

Biological target: human activated kallikrein enzyme (Homo sapiens, UniProt P03952)
Assay: Plasma kallikrein inhibition, fluorogenic PFR-AMC substrate, 500 pM activated kallikrein format
Assay type: biochemical
Details: 500 pM activated kallikrein, 300 uM PFR-AMC, 30 min preincubation, 10 min reaction; read-out: Primary Dose Response Assay: Average EC50
Outline: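 500 pM enz + cpd, 30 min RT preinc; start w/ PFR-AMC 300 uM; 10 min RT; Ex380/Em460. Buffer: Tris 20 mM pH 7.5, EDTA 1 mM, NaCl 150 mM, PEG-400 0.1%, Triton 0.1%. EC50.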

Chain of human activated kallikrein enzyme (P03952 391-638 limits assumed): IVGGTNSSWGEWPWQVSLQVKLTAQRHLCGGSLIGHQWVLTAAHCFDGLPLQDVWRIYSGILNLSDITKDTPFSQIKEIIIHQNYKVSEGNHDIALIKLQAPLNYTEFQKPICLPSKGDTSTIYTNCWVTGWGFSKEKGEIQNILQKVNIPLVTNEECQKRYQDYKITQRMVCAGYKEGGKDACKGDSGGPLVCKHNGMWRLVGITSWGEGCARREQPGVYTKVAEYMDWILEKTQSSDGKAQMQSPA
Chain of human activated kallikrein enzyme (P03952 20-390 partner limits assumed): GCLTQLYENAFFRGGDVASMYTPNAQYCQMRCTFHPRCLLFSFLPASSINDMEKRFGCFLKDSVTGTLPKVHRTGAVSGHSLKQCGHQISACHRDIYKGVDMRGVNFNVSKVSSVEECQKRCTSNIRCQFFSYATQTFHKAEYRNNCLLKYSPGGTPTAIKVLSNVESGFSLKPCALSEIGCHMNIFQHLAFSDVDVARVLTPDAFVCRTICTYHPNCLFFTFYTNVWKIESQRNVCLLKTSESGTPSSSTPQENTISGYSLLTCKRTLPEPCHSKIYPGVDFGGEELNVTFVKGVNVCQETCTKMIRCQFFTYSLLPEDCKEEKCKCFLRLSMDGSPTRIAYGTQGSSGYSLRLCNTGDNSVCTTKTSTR

SMILES	EC50
COc1ccc(CN2C(=O)CN(c3cc(C4CC4)cn4cc(CNc5cc(NC(=O)[C@H]6C[C@@H]6c6cccc(Cl)c6)ncn5)nc34)C2=O)cc1 [Example 397, (1S,2S)-2-(3-chlorophenyl)-N-(6-(((6-cyclopropyl-8-(3-(4-methoxybenzyl)-2,4-dioxoimidazolidin-1-yl)imidazo[1,2-a]pyridin-2-yl)methyl)amino)pyrimidin-4-yl)cyclopropane-1-carboxamide]	10 to 100 nM
O=C(Nc1cc(NCc2cn3cc(C4CC4)cc(N4CC(=O)N(CC(F)(F)F)C4=O)c3n2)ncn1)[C@H]1C[C@@H]1c1cccc(Cl)c1 [Example 398, (1S,2S)-2-(3-chlorophenyl)-N-(6-(((6-cyclopropyl-8-(2,4-dioxo-3-(2,2,2-trifluoroethyl)imidazolidin-1-yl)imidazo[1,2-a]pyridin-2-yl)methyl)amino)pyrimidin-4-yl)cyclopropane-1-carboxamide]	1 to 10 nM
O=C(Nc1cc(NCc2cn3cc(C4CC4)ccc3n2)ncn1)[C@H]1C[C@@H]1c1ccc(Cl)s1 (racemic) [Example I-185, rac-(1S*,2S*)-2-(5-chlorothiophen-2-yl)-N-(6-(((6-cyclopropylimidazo[1,2-a]pyridin-2-yl)methyl)amino)pyrimidin-4-yl)cyclopropane-1-carboxamide]	100 to 1000 nM
Cc1ccnc([C@H]2C[C@@H]2C(=O)Nc2cc(CCc3cn4cc(C5CC5)cc(N5CC(=O)N(C)C5=O)c4n3)ccn2)n1 [Example I-653, (1S,2S)—N-(4-(2-(6-cyclopropyl-8-(3-methyl-2,4-dioxoimidazolidin-1-yl)imidazo[1,2-a]pyridin-2-yl)ethyl)pyridin-2-yl)-2-(4-methylpyrimidin-2-yl)cyclopropane-1-carboxamide]	< 1 nM
O=C(Nc1cc(NCc2cn3cc(C4CC4)ccc3n2)ncn1)[C@H]1C[C@@H]1c1cc(Cl)ccc1-n1cnnn1 (racemic) [Example 316, rac-(1S*,2S*)-2-(5-chloro-2-(1H-tetrazol-1-yl)phenyl)-N-(6-(((6-cyclopropylimidazo[1,2-a]pyridin-2-yl)methyl)amino)pyrimidin-4-yl)cyclopropane-1-carboxamide]	1 to 10 nM
CC1(C)CC(=O)N(c2cc(C3CC3)cn3cc(CNc4cc(NC(=O)[C@H]5C[C@@H]5c5cccc(Cl)c5)ncn4)nc23)C1 (racemic) [Example 66, rac-(1S*,2S*)-2-(3-chlorophenyl)-N-(6-(((6-cyclopropyl-8-(4,4-dimethyl-2-oxopyrrolidin-1-yl)imidazo[1,2-a]pyridin-2-yl)methyl)amino)pyrimidin-4-yl)cyclopropane-1-carboxamide]	1 to 10 nM
O=C(Nc1cc(NCc2cn3cc(C4CC4)ccc3n2)ncn1)[C@H]1C[C@@H]1c1cccc(Br)c1 (racemic) [Example 54, rac-(1S*,2S*)-2-(3-bromophenyl)-N-(6-(((6-cyclopropylimidazo[1,2-a]pyridin-2-yl)methyl)amino)pyrimidin-4-yl)cyclopropane-1-carboxamide]	10 to 100 nM
Cc1cc(N2CC3CC3C2=O)c2nc([C@@H](C)Nc3cc(NC(=O)[C@H]4C[C@@H]4c4nccc(C)n4)nc(C)n3)cn2c1 (stereo partly drawn) [Example 430, (1S,2S)-N-(2-methyl-6-(((1R)-1-(6-methyl-8-(2-oxo-3-azabicyclo[3.1.0]hexan-3-yl)imidazo[1,2-a]pyridin-2-yl)ethyl)amino)pyrimidin-4-yl)-2-(4-methylpyrimidin-2-yl)cyclopropane-1-carboxamide]	1 to 10 nM
O=C(O)CCc1cc(C2CC2)cn2cc(CNc3cc(NC(=O)[C@H]4C[C@@H]4c4cccc(Cl)c4)ncn3)nc12 (racemic) [Example 72, rac-3-(2-(((6-((1S*,2S*)-2-(3-chlorophenyl)cyclopropane-1-carboxamido)pyrimidin-4-yl)amino)methyl)-6-cyclopropylimidazo[1,2-a]pyridin-8-yl)propanoic acid]	1 to 10 nM
O=C(Nc1cc(NCc2cn3cc(C4CC4)ccc3n2)ccn1)[C@H]1C[C@@H]1c1cc(Cl)ncn1 (racemic) [Example I-210, rac-(1S*,2S*)-2-(6-chloropyrimidin-4-yl)-N-(4-(((6-cyclopropylimidazo[1,2-a]pyridin-2-yl)methyl)amino)pyridin-2-yl)cyclopropane-1-carboxamide]	100 to 1000 nM
CCOC(=O)Cc1cc(C2CC2)cn2cc(CNc3ccnc(NC(=O)[C@H]4C[C@@H]4c4cccc(Cl)c4)c3)nc12 [Example I-241, ethyl 2-(2-(((2-((1S,2S)-2-(3-chlorophenyl)cyclopropane-1-carboxamido)pyridin-4-yl)amino)methyl)-6-cyclopropylimidazo[1,2-a]pyridin-8-yl)acetate]	< 1 nM
Cc1ccnc([C@H]2C[C@@H]2C(=O)Nc2cc(NCc3cn4cc(C5CC5(F)F)cc(N5CC(=O)N(C)C5=O)c4n3)ncn2)n1 (stereo partly drawn) [Example 535, (1S,2S)-N-(6-(((6-(2,2-difluorocyclopropyl)-8-(3-methyl-2,4-dioxoimidazolidin-1-yl)imidazo[1,2-a]pyridin-2-yl)methyl)amino)pyrimidin-4-yl)-2-(4-methylpyrimidin-2-yl)cyclopropane-1-carboxamide]	< 1 nM
O=C(Nc1cc(NCc2cn3cc(C4CC4)cc(N4CCOCC4)c3n2)ncn1)[C@H]1C[C@@H]1c1cccc(Cl)c1 [Example I-154, (1S,2S)-2-(3-chlorophenyl)-N-(6-(((6-cyclopropyl-8-morpholinoimidazo[1,2-a]pyridin-2-yl)methyl)amino)pyrimidin-4-yl)cyclopropane-1-carboxamide]	1 to 10 nM
O=C(Nc1cc(NCc2cn3cc(C4CC4)ccc3n2)ncn1)[C@@H]1C[C@H]1c1cccc(Cl)c1 (single isomer, unassigned) [Example 56]	100 to 1000 nM
Cc1ccnc([C@H]2C[C@@H]2C(=O)Nc2cc(NCc3cn4cc(C5CC5)cc(N5CC(=O)N(C)C5=O)c4n3)c(Cl)nn2)n1 [Example I-247, (1S,2S)-N-(6-chloro-5-(((6-cyclopropyl-8-(3-methyl-2,4-dioxoimidazolidin-1-yl)imidazo[1,2-a]pyridin-2-yl)methyl)amino)pyridazin-3-yl)-2-(4-methylpyrimidin-2-yl)cyclopropane-1-carboxamide]	1 to 10 nM

Further lines, results first:

EC50	SMILES
1 to 10 nM	O=C(NCc1cn(Cc2cn3cc(C4CC4)cc(-n4cnnc4)c3n2)nn1)[C@H]1C[C@@H]1c1cccc(Cl)c1 [Example 591, (1S,2S)-2-(3-chlorophenyl)-N-((1-((6-cyclopropyl-8-(4H-1,2,4-triazol-4-yl)imidazo[1,2-a]pyridin-2-yl)methyl)-1H-1,2,3-triazol-4-yl)methyl)cyclopropane-1-carboxamide]
< 1 nM	Cc1ccnc([C@H]2C[C@@H]2C(=O)Nc2cc(NCc3cn4cc(C5CC5)cc(N5CC(=O)N(C)C5=O)c4n3)n3ncnc3n2)n1 (racemic) [Example 624, rac-(1S*,2S*)—N-(7-(((6-cyclopropyl-8-(3-methyl-2,4-dioxoimidazolidin-1-yl)imidazo[1,2-a]pyridin-2-yl)methyl)amino)-[1,2,4]triazolo[1,5-a]pyrimidin-5-yl)-2-(4-methylpyrimidin-2-yl)cyclopropane-1-carboxamide]
> 6000 nM	O=C(Nc1cc(NCc2cn3cc(C4CC4)ccc3n2)ncn1)[C@H]1C[C@@H]1c1n[nH]c2ccc(Cl)cc12 (racemic) [Example I-191, rac-(1S*,2S*)-2-(5-chloro-1H-indazol-3-yl)-N-(6-(((6-cyclopropylimidazo[1,2-a]pyridin-2-yl)methyl)amino)pyrimidin-4-yl)cyclopropane-1-carboxamide]
100 to 1000 nM	Cc1ccnc([C@H]2C[C@@H]2C(=O)Nc2ncnc3nn(Cc4cn5cc(C6CC6)cc(N6CC(=O)N(C)C6=O)c5n4)cc23)n1 (single isomer, unassigned) [Example I-633, rac-(1S*,2S*)—N-(2-((6-cyclopropyl-8-(3-methyl-2,4-dioxoimidazolidin-1-yl)imidazo[1,2-a]pyridin-2-yl)methyl)-2H-pyrazolo[3,4-d]pyrimidin-4-yl)-2-(4-methylpyrimidin-2-yl)cyclopropane-1-carboxamide]
< 1 nM	Cc1ccnc([C@H]2C[C@@H]2C(=O)Nc2cc(N[C@H](C)c3cn4cc(C5CC5)cc(N5CC6(CN(C)C6)N(C)C5=O)c4n3)ncn2)n1 [Example I-245, (1S,2S)-N-(6-(((R)-1-(6-cyclopropyl-8-(2,5-dimethyl-6-oxo-2,5,7-triazaspiro[3.4]octan-7-yl)imidazo[1,2-a]pyridin-2-yl)ethyl)amino)pyrimidin-4-yl)-2-(4-methylpyrimidin-2-yl)cyclopropane-1-carboxamide]
1 to 10 nM	COC(=O)C1CN(c2cc(C3CC3)cn3cc(CNc4cc(NC(=O)[C@H]5C[C@@H]5c5cccc(Cl)c5)ncn4)nc23)CCN1C (stereo partly drawn) [Example I-8, methyl 4-(2-(((6-((15,2S)-2-(3-chlorophenyl)cyclopropane-1-carboxamido)pyrimidin-4-yl)amino)methyl)-6-cyclopropylimidazo[1,2-α]pyridin-8-yl)-1-methylpiperazine-2-carboxylate]
1000 to 6000 nM	N[C@H]1C[C@H](c2cn3cc(C4CC4)ccc3n2)N(c2cc(NC(=O)[C@H]3C[C@@H]3c3cccc(Cl)c3)ncn2)C1 [Example 297, (1S,2S)—N-(6-((2R,4S)-4-amino-2-(6-cyclopropylimidazo[1,2-a]pyridin-2-yl)pyrrolidin-1-yl)pyrimidin-4-yl)-2-(3-chlorophenyl)cyclopropane-1-carboxamide]
< 1 nM	Cc1ccnc([C@H]2C[C@@H]2C(=O)Nc2cc(N[C@H](C)c3cn4cc(C5CC5)cc(N=S(C)(C)=O)c4n3)nc(C)n2)n1 [Example 431, (1S,2S)-N-(6-(((R)-1-(6-cyclopropyl-8-((dimethyl(oxo)-16-sulfaneylidene)amino)imidazo[1,2-a]pyridin-2-yl)ethyl)amino)-2-methylpyrimidin-4-yl)-2-(4-methylpyrimidin-2-yl)cyclopropane-1-carboxamide]

Same assay, conditions: comparative compounds, 500 pM activated kallikrein format; read-out: Primary Dose Response Assay: Average EC50

EC50	SMILES
1000 to 6000 nM	O=c1ccc(NCc2cn3cc(C4CC4)ccc3n2)cn1NC[C@H]1C[C@@H]1c1cccc(Cl)c1
